The values below come from patent US20250188092A1, “RIFAMYCIN ANALOGS” (THE REGENTS OF THE UNIVERSITY OF MICHIGAN, priority 2021, published 2025).

For data set [1], the target named is T1, E. coli WT RNAP (Escherichia coli, UniProt P0A8V2).
T1 construct: made in house
The data set can be described thus: biochemical.

Data set [2] has as its target T2, E. coli D516V (RIF^R) RNAP (Escherichia coli, UniProt P0A8V2, D516V).
T2 construct: made in house
The data set can be described thus: biochemical.

For data set [3], the target named is T3, E. coli S531L (RIF^R) RNAP (Escherichia coli, UniProt P0A8V2, S531L).
T3 construct: made in house
The data set can be described thus: biochemical.

Data set [4] concerns VERO cells (ATCC CRL-81). The data set can be described thus: Vero cell toxicity. The format is cell-based. The note with it: Chlorocebus sabaeus, Vero; 72 hours exposure. The procedure:
Cytotoxicity for a mammalian cell line was determined by exposing VERO cells (ATCC CRL-81) to serial dilutions of test compounds for 72 hours, followed by addition of resazurin and measurement of fluorescence after 4 hours incubation (Choules, et al., Antimnicrob. Agents Chemother. 2019, 63, e02204-02218).

The test system of data set [5] is MTB H37Rv ATCC 27294. The data set can be described thus: MIC, microplate Alamar Blue assay (MABA). The following applies: for MIC / MIC90: Mycobacterium tuberculosis, MTB H37Rv ATCC 27294, microplate Alamar Blue assay, lowest concentration giving ≥90% reduction in fluorescence; for MIC: read-out: MIC90 MABA. The format is cell-based, Mycobacterium tuberculosis.
The subject of data set [6] is M. tuberculosis H37Rv. The data set can be described thus: Minimum bactericidal concentration (MBC, CFU Assay). Format: cell-based, Mycobacterium tuberculosis. The note with it: for MBC99 Day 7 (CFU Assay) MBC99 Rel to RMP: CFU Assay MBC99 relative to rifampin (RMP = 1); for MBC: Mycobacterium tuberculosis, 168 h, Day 7, M. tuberculosis H37Rv, ≥99% reduction in colony forming units, read-out: MBC99 Day 7 (CFU Assay) MBC99.

Data set [7] deals with DPX2 cells. The note with it: for DPX2 Viability @ 6.25 μM: 24 h; for DPX2 Viability @ 25 μM: human.

Values after ≈ are worked out from the molar mass of the structure shown.

As to `CO[C@H]1/C=C/O[C@@]2(C)Oc3c(C)c(O)c4c(=O)c(c5oc6cccc(OCCCCN7CCN(C)CC7)c6nc-5c4c3C2=O)NC(=O)/C(C)=C\C=C\[C@H](C)[C@H](O)[C@@H](C)[C@@H](O)[C@@H](C)[C@H](OC(C)=O)[C@@H]1C` [Compound 5a, (7S,9E,11S,12R,13S,14R,15R,16R,17S,18S,19E,21Z)-2,15,17-Trihydroxy-11-methoxy-3,7,12,14,16,18,22-heptamethyl-32-[4-(4-methylpiperazin-1-yl)butoxy]-6,23,37-trioxo-8,27,38-trioxa-24,34-diazahexacyclo[23.11.1.1^4,7.0^5,36.0^26,35.0^28,33]octatriaconta-1(36)2,4,9,19,21,25,28(33)29,31,34-undecaen-13-yl acetate], half-maximal inhibition in data set [1] (IC50) was put at 6 nM. In addition, in data set [2], the IC50 (commonly the concentration that inhibits the measured activity by half) came to 27 µM. The compound also registered an IC50 in data set [3] of 790 µM. The compound also showed an IC50 in data set [4] of over 8 µM. Further, in data set [5], the “MIC90 MABA Rel to RMP” value came to 3.1 and the MIC was determined as 0.092 µM. In data set [6], the “MBC99 Day 7 (CFU Assay) MBC99 Rel to RMP” value came out at 0.77 and the MBC stood at 0.1 µM. For the same compound, in data set [7], the “DPX2 Viability @ 6.25 μM” value came to 87% and the “DPX2 Viability @ 25 μM” value turned out to be 47%.

Regarding `CO[C@H]1/C=C/O[C@@]2(C)Oc3c(C)c(O)c4c(=O)c(c5oc6cccc(OCCCCN7CCOCC7)c6nc-5c4c3C2=O)NC(=O)/C(C)=C\C=C\[C@H](C)[C@H](O)[C@@H](C)[C@@H](O)[C@@H](C)[C@H](OC(C)=O)[C@@H]1C` [Compound 5b, (7S,9E,11S,12R,13S,14R,15R,16R,17S,18S,19E,21Z)-2,15,17-Trihydroxy-11-methoxy-3,7,12,14,16,18,22-heptamethyl-32-[4-(morpholin-4-yl)butoxy]-6,23,37-trioxo-8,27,38-trioxa-24,34-diazahexacyclo[23.11.1.1^4,7.0^5,36.0^26,35.0^28,33]octatriaconta-1(36)2,4,9,19,21,25,28(33)29,31,34-undecaen-13-yl acetate], the IC50 in data set [1] is 7 nM; in data set [2], 65 µM; in data set [3], 390 µM; in data set [4], over 8 µM. Also, the “MIC90 MABA Rel to RMP” value in data set [5] is 0.70. For the same compound, in data set [5], the MIC worked out at 0.021 µM. Besides, the “MBC99 Day 7 (CFU Assay) MBC99 Rel to RMP” value in data set [6] came to 0.38. Also, the MBC in data set [6] stood at 0.05 µM. The “DPX2 Viability @ 6.25 μM” value in data set [7] was determined as 81%. Besides, the “DPX2 Viability @ 25 μM” value in data set [7] was 45%.

For `CO[C@H]1/C=C/O[C@@]2(C)Oc3c(C)c(O)c4c(=O)c(c5oc6cccc(OCCCCN7CCN(C(=O)OC(C)(C)C)CC7)c6nc-5c4c3C2=O)NC(=O)/C(C)=C\C=C\[C@H](C)[C@H](O)[C@@H](C)[C@@H](O)[C@@H](C)[C@H](OC(C)=O)[C@@H]1C` [Compound 5c, Tert-Butyl 4-(4-{[(7S,9E,11S,12R,13S,14R,15R,16R,17S,18S,19E,21Z)-13-(acetyloxy)-2,15,17-trihydroxy-11-methoxy-3,7,12,14,16,18,22-heptamethyl-6,23,37-trioxo-8,27,38-trioxa-24,34-diazahexacyclo[23.11.1.1^4,7.0^5,36.0^26,35.0^28,33]octatriaconta-1(36)2,4,9,19,21,25,28(33)29,31,34-undecaen-32-yl]oxy}butyl)piperazine-1-carboxylate], the IC50 was under 5 nM in data set [1], 22 µM in data set [2], 300 µM in data set [3] and 6.2 µM in data set [4]. In addition, the “MIC90 MABA Rel to RMP” value in data set [5] is reported as 0.89. Also, the MIC in data set [5] was 0.024 µM (≈ 0.025 µg/mL). Also, the “MBC99 Day 7 (CFU Assay) MBC99 Rel to RMP” value in data set [6] stood at 0.77. The MBC in data set [6] stood at 0.1 µM (≈ 0.104 µg/mL).

With `CO[C@H]1/C=C/O[C@@]2(C)Oc3c(C)c(O)c4c(=O)c(c5oc6cccc(OCc7cccc(CN8CCN(C(=O)Cc9ccccc9)CC8)c7)c6nc-5c4c3C2=O)NC(=O)/C(C)=C\C=C\[C@H](C)[C@H](O)[C@@H](C)[C@@H](O)[C@@H](C)[C@H](OC(C)=O)[C@@H]1C` [Compound 11g, (7S,9E,11S,12R,13S,14R,15R,16R,17S,18S,19E,21Z)-2,15,17-Trihydroxy-11-methoxy-3,7,12,14,16,18,22-heptamethyl-6,23,37-trioxo-32-[(3-{[4-(2-phenylacetyl)-piperazin-1-yl]methyl}phenyl)methoxy]-8,27,38-trioxa-24,34-diazahexacyclo[23.11.1.1^4,7.0^5,36.0^26,35.0^28,33]octatriaconta-1(36)2,4,9,19,21,25,28,30,32,34-undecaen-13-yl acetate], the IC50 is under 5 nM in data set [1], 0.58 µM in data set [2], 28 µM in data set [3] and over 32 µM in data set [4]. The “MIC90 MABA Rel to RMP” value in data set [5] amounted to 0.30. The MIC90 (commonly the lowest concentration that inhibits either 90% of growth or 90% of the strains tested, depending on the study) in data set [5] amounted to 0.011 µM. In addition, the “DPX2 Viability @ 6.25 μM” value in data set [7] stood at 88%. Besides, the “DPX2 Viability @ 25 μM” value in data set [7] was 70%.

Turning to `CO[C@H]1/C=C/O[C@@]2(C)Oc3c(C)c(O)c4c(=O)c(c5oc6cccc(OCc7ccc(CN8CCN(C(=O)CN9CCOCC9)CC8)cc7)c6nc-5c4c3C2=O)NC(=O)/C(C)=C\C=C\[C@H](C)[C@H](O)[C@@H](C)[C@@H](O)[C@@H](C)[C@H](OC(C)=O)[C@@H]1C` [Compound 16c, (7S,9E,11S,12R,13S,14R,15R,16R,17S,18S,19E,21Z)-2,15,17-Trihydroxy-11-methoxy-3,7,12,14,16,18,22-heptamethyl-32-{[4-({4-[2-(morpholin-4-yl)acetyl]piperazin-1-yl}methyl)phenyl]methoxy}-6,23,37-trioxo-8,27,38-trioxa-24,34-diazahexacyclo[23.11.1.1^4,7.0^5,36.0^26,35.0^28,33]octatriaconta-1(36)2,4,9,19,21,25,28,30,32,34-undecaen-13-yl acetate], the IC50 in data set [1] is 5 nM; in data set [2], 10 µM; in data set [3], 92 µM; in data set [4], over 8 µM. The “MIC90 MABA Rel to RMP” value in data set [5] came to 0.51. Also, the MIC90 in data set [5] came out at 0.019 µM. Also, in data set [7], the “DPX2 Viability @ 6.25 μM” value is 96%. Further, the “DPX2 Viability @ 25 μM” value in data set [7] was determined as 55%.

As for `CO[C@H]1/C=C/O[C@@]2(C)Oc3c(C)c(O)c4c(=O)c(c5oc6cc(C)cc(N7CCN(CC(C)C)CC7)c6nc-5c4c3C2=O)NC(=O)/C(C)=C\C=C\[C@H](C)[C@H](O)[C@@H](C)[C@@H](O)[C@@H](C)[C@H](OC(C)=O)[C@@H]1C` [Compound 30c, (7S,9E,11S,12R,13S,14R,15R,16R,17S,18S,19E,21Z)-2,15,17-Trihydroxy-11-methoxy-3,7,12,14,16,18,22,30-octamethyl-32-[4-(2-methylpropyl)piperazin-1-yl]-6,23,37-trioxo-8,27,38-trioxa-24,34-diazahexacyclo[23.11.1.1^4,7.0^5,36.0^26,35.0^28,33]octatriaconta-1(36)2,4,9,19,21,25,28,30,32,34-undecaen-13-yl acetate], the half-inhibitory concentration (IC50) was 6 nM in data set [1], 10 µM in data set [2], 130 µM in data set [3] and over 8 µM in data set [4]. For the same compound, the “MIC90 MABA Rel to RMP” value in data set [5] is on record as under 0.6. Also, the MIC90 in data set [5] was under 0.016 µM. In addition, in data set [7], the “DPX2 Viability @ 6.25 μM” value turned out to be 93%. Also, the “DPX2 Viability @ 25 μM” value in data set [7] was determined as 49%.

As to `CO[C@H]1/C=C/O[C@@]2(C)Oc3c(C)c(O)c4c(=O)c(c5oc6cc(C=Nc7ccc(N8CCOCC8)cc7)cc(N7CCN(C)CC7)c6nc-5c4c3C2=O)NC(=O)/C(C)=C\C=C\[C@H](C)[C@H](O)[C@@H](C)[C@@H](O)[C@@H](C)[C@H](OC(C)=O)[C@@H]1C` [Compound 32, (7S,9E,11S,12R,13S,14R,15R,16R,17S,18S,19E,21Z)-2,15,17-trihydroxy-11-methoxy-3,7,12,14,16,18,22-heptamethyl-32-(4-methylpiperazin-1-yl)-30-{N-[4-(morpholin-4-yl)phenyl]carboximidoyl}-6,23,37-trioxo-8,27,38-trioxa-24,34-diazahexacyclo[23.11.1.1^4,7.0^5,36.0^26,35.0^28,33]octatriaconta-1,3,5(36)9,19,21,25,28,30,32,34-undecaen-13-yl acetate], the IC50 in data set [1] was 10 nM; in data set [2], 30 µM; in data set [3], 330 µM; in data set [4], over 8 µM. Moreover, the “MIC90 MABA Rel to RMP” value in data set [5] is reported as 1.74. Also, the MIC90 in data set [5] was 0.047 µM. The “DPX2 Viability @ 6.25 μM” value in data set [7] is recorded as 116%. The “DPX2 Viability @ 25 μM” value in data set [7] was 100%.
